Values belong to the compound of their own block, whether it stands above or below them.
Tests used:
[1] = test system: CBSA-5335 (fluorophore/quencher-modified) (DNA, aptamer, C3 spacer abasic at 10 of strand 2) CTCCTTCAACGAAGTGGGTCTCCTTCAACGAAGTGGGTCTC/GAGACAAGGNGACAAGGAGT; assay: fluorophore/quencher assembly assay; details: 100 μM MgCl2
[2] = test system: 38-GC-20C (DNA, aptamer) GGGAGACAAGGAAAATCCTCCAACGAAGTGGGTCTCCC; assay: ITC; details: 20 μM aptamer, 500 μM cocaine titrant
[3] = test system: LSA (DNA, aptamer, C3 spacer abasic at 10 of strand 2) CTCCTTCAACGAAGTGGGTTCCTTGTCTC/GAGACAAGGNACAAGGAG; assay: ATMND quenching assembly assay; details: 100 μM MgCl2; 10 mM Tris-HCl, pH 7.4; 1 μM each strand; 250 μM cocaine, additional 10% change; mostly pre-assembled
[4] = test system: 38-GC-21T (DNA, aptamer) GGGAGACAAGGAAAATCCTTTAACGAAGTGGGTCTCCC; assay: ITC; details: 20 μM aptamer, 500 μM cocaine titrant
[5] = test system: CBSA-5445 (DNA, aptamer, C3 spacer abasic at 11 of strand 2) CTCCTTCAACGAAGTGGGTTCTTCCTTCAACGAAGTGGGTCTC/GAGACAAGGANGAACAAGGAG; assay: ATMND quenching assembly assay; details: 100 μM MgCl2
[6] = test system: 38-GC-22T (DNA, aptamer) GGGAGACAAGGAAAATCCTTCTACGAAGTGGGTCTCCC; assay: ITC; details: 20 μM aptamer, 500 μM cocaine titrant
[7] = test system: CBSA-M1 (DNA, aptamer, C3 spacer abasic at 10 of strand 2) CTCCTTCAACGAAGTGGGTTCCTTCGACGAAGTGGGTCTC/GAGACAAGGNACAAGGAG; assay: ATMND quenching assembly assay; details: 100 μM MgCl2; 10 mM Tris-HCl, pH 7.4; 1 μM each strand; 200 nM ATMND; cocaine tested at 250 μM
[8] = test system: 38-GC-22G (DNA, aptamer) GGGAGACAAGGAAAATCCTTCGACGAAGTGGGTCTCCC; assay: ITC; details: 20 μM aptamer, 500 μM cocaine titrant
[9] = test system: PSA (DNA, aptamer, C3 spacer abasic at 3 of strand 2) CTCCTTCAACGAAGTGGGTTCC/GGNACAAGGAG; assay: ITC, single-site fit; details: 100 μM MgCl2; 10 mM Tris-HCl, pH 7.4, 20 °C
[10] = test system: CBSA-5325 (DNA, aptamer, C3 spacer abasic at 10 of strand 2) CTCCTTCAACGAAGTGGGTTCCTTCAACGAAGTGGGTCTC/GAGACAAGGNACAAGGAG; assay: ATMND quenching assembly assay; details: 100 μM MgCl2; 10 mM Tris-HCl, pH 7.4; 1 μM each strand; 200 nM ATMND; 250 μM cocaine, 72% quenching
[11] = test system: CBSA-5435 (DNA, aptamer, C3 spacer abasic at 11 of strand 2) CTCCTTCAACGAAGTGGGTCTTCCTTCAACGAAGTGGGTCTC/GAGACAAGGANGACAAGGAG; assay: ATMND quenching assembly assay; details: 100 μM MgCl2
[12] = test system: CBSA-M2 (DNA, aptamer, C3 spacer abasic at 10 of strand 2) CTCCTTCGACGAAGTGGGTTCCTTCAACGAAGTGGGTCTC/GAGACAAGGNACAAGGAG; assay: ATMND quenching assembly assay; details: 100 μM MgCl2; 10 mM Tris-HCl, pH 7.4; 1 μM each strand; 200 nM ATMND; cocaine tested at 250 μM
[13] = test system: CBSA-5335 (fluorophore/quencher-modified) (DNA, aptamer, C3 spacer abasic at 10 of strand 2) CTCCTTCAACGAAGTGGGTCTCCTTCAACGAAGTGGGTCTC/GAGACAAGGNGACAAGGAGT; assay: fluorophore/quencher assembly titration, Hill fit; details: 100 μM MgCl2; 10 mM Tris-HCl, pH 7.4, room temperature; 1 μM each strand; nH 1.5; apparent; b21 prints 33 μM
[14] = test system: 38-GC-20A (DNA, aptamer) GGGAGACAAGGAAAATCCTACAACGAAGTGGGTCTCCC; assay: ITC; details: 20 μM aptamer, 500 μM cocaine titrant
[15] = test system: CBSA-5325 (fluorophore/quencher-modified) (DNA, aptamer, C3 spacer abasic at 10 of strand 2) CTCCTTCAACGAAGTGGGTTCCTTCAACGAAGTGGGTCTC/GAGACAAGGNACAAGGAGT; assay: fluorophore/quencher assembly titration, Hill fit; details: 100 μM MgCl2; 10 mM Tris-HCl, pH 7.4, room temperature; 1 μM each strand; nH 1.1; apparent
[16] = test system: CBSA-5335-GT (fluorophore/quencher-modified) (DNA, aptamer, C3 spacer abasic at 10 of strand 2) CTCCTTCAATGAAGTGGGTCTCCTTCAACGAAGTGGGTCTC/GAGACAAGGNGACAAGGAGT; assay: fluorophore/quencher assembly titration, Hill fit; details: 100 μM MgCl2; 10 mM Tris-HCl, pH 7.4, room temperature; 1 μM each strand; nH 1.5; apparent
[17] = test system: 38-GC (DNA, aptamer) GGGAGACAAGGAAAATCCTTCAACGAAGTGGGTCTCCC; assay: ITC; details: 20 μM aptamer, 500 μM cocaine titrant
[18] = test system: LSA (DNA, aptamer, C3 spacer abasic at 10 of strand 2) CTCCTTCAACGAAGTGGGTTCCTTGTCTC/GAGACAAGGNACAAGGAG; assay: fluorescence quenching; details: 100 μM MgCl2; 10 mM Tris-HCl, pH 7.4; 1 μM each strand; 200 nM ATMND; no cocaine; 75% quenching
[19] = test system: CBSA-5325 (DNA, aptamer, C3 spacer abasic at 10 of strand 2) CTCCTTCAACGAAGTGGGTTCCTTCAACGAAGTGGGTCTC/GAGACAAGGNACAAGGAG; assay: fluorescence quenching titration, Scatchard; details: 100 μM MgCl2; 10 mM Tris-HCl, pH 7.4; 200 nM ATMND; 1 mM cocaine present (cocaine-assembled aptamer)

binding ([1]; 10% saliva, room temperature, 19% cross-reactivity at 50 μM, 3% at 5 μM): weak
SMILES: CCOC(=O)[C@H]1[C@@H](OC(=O)c2ccccc2)C[C@@H]2CC[C@H]1N2C

binding ([1]; 10% saliva, 10 mM Tris-HCl, pH 7.4, room temperature, tested at 50 μM): no
SMILES: CN1CCC[C@H]1c1cccnc1

binding [1]: no
SMILES: CN1[C@H]2CC[C@@H]1[C@@H](C(=O)O)[C@@H](OC(=O)c1ccccc1)C2

binding [1]: no
SMILES: COC(=O)C1=CC[C@@H]2CC[C@H]1N2C

SMILES: COC(=O)[C@H]1[C@@H](OC(=O)c2ccccc2)C[C@@H]2CC[C@H]1N2C
KD [2]: 714 µM
binding [3]: weak
KD [4]: 49.3 µM
binding [5]: yes
KD [6]: 169 µM
binding [7]: no
binding [8]: no
KD [9]: 2000 µM
binding [10]: yes
binding [11]: yes
binding [12]: no
K 1/2 [13]: 36 µM
KD [14]: 169 µM
K 1/2 [15]: 106 µM
K 1/2 [16]: 125 µM
KD [17]: 2.60 µM

binding [18]: yes
KD [19]: 0.365 µM
SMILES: Cc1nc2nc(N)ccc2c(C)c1C
